The values below come from US20140005281A1, “Method of Predicting Increased Risk of Suffering Statin-induced Adverse Drug Reactions” (priority 2012, published 2014).

One data set has as its system αC418W and WT mice. Description: GBHA stain for end-plate (NMJ) calcium overload, tibialis anterior muscle. The text has this:
(§1) Serial cryosections of tibialis anterior muscle from statin-treated αC418W and WT mice were stained for calcium deposits (via GBHA) and also for cholinesterase to localize end-plates. Looking at these in adjacent sections, we were able to measure the percent of calcium-positive NMJs as previously described.

The subject of the next data set is caspase-3. Particulars: mouse, in vivo. Here is the method:
A firefly luciferase-based assay was used to measure activity of caspase 3 (Caspase-Glo® 3/7, Promega). Muscles were homogenized (25 mM HEPES pH 7.5, 0.1% (v/v) Triton X-100, 5 mM MgCl2, 2 mM 1,4-dithiothreitol, 10 mM NH4Cl, 10 mM 3-methyladenine, 74 μM antipain, 0.15 μM aprotinin, 1.3 mM EDTA, 20 μM leupeptin, and 15 μM pepstatin). After homogenization, a 20 μg protein product was added to the luminometer in triplicates for the protease luminescence assay.
as §1

The nature of data set [1]: Cholesterol measurement in muscle during statin treatment. It counts as in vivo, mice. Particulars: after 3 days of statin treatment, 44 mg/kg daily oral gavage.
Experimental: 800 μl of each sucrose gradient fraction were subjected to the Bligh-Dyer method for the extraction of lipids in solution. Briefly, 3.75 ml 1:2 (v/v) CHC13: MeOH were added to each sample, followed by 1.25 ml of CHCl3, and 1.25 ml of distilled water; after each addition, samples were vigorously vortexed. The organic phase of each sample was carefully extracted and dried under N2(g). Cholesterol was separated from other lipids on rhodamine 6G stained silica gel G plates with petroleum ether/diethyl ether (98:2, v/v) as the solvent system. The spots corresponding to cholesterol was extracted with petroleum ether:ethyl ether (2:3 v/v) and further assayed using the Wako cholesterol E Kit (Wako Chemicals USA, VA) according to the manufacturer's indications.

With `CC(C)c1c(C(=O)Nc2ccccc2)c(-c2ccccc2)c(-c2ccc(F)cc2)n1CC[C@@H](O)C[C@@H](O)CC(=O)O` [atorvastatin, Atorvastatin calcium], the NMJ calcium overload result in the data set with αC418W and WT mice (WT mice, statin treatment) is on record as “did not cause NMJ calcium overload”. For the same molecule, the “NMJ calcium overload (GBHA-positive end-plates), increase over control levels” value in the data set on αC418W and WT mice (αC418W mice, at 36 days of statin treatment) is about 3 fold. For the same molecule, in the data set on caspase-3, the caspase-3 activity result was “did not show an increase” and the “caspase-3 activity compared with placebo-treated control group” value is “remained unchanged”. Also, the total cholesterol levels result in data set [1] is reported as “significantly lowered”.
